Assay results: patent US20080014278A1, “METAL-CONTAINING FORMULATIONS AND METHODS OF USE” (priority 2006, published 2008)
Values after ≈ are worked out from the molar mass of the structure shown.

How the values were obtained:
Enterobacter cloacae = assay: MIC assay (microdilution); type: cell-based; conditions: Ent. cloacae
Escherichia coli = assay: MIC assay (microdilution); type: cell-based
DNBS-induced colitis [1] = assay: DNBS-induced colitis in rat, macroscopic observations (body weight, total IBD score); type: in vivo, Sprague-Dawley rats; conditions: for total IBD score: vs placebo
Description: Animals: Male Sprague-Dawley rats, weighing approximately 250-300 gm were purchased from Charles River Laboratories (Raleigh, N.C.). The animals were housed under standard conditions with free access to food and water. They were acclimatized for 2-3 days before commencing the experiments. The study protocol was approved by the Institutional Animal Care and Use Committees (IACUC).
Induction of ulcerative colitis: Colitis was produced according to published methods. Animals were anesthetized by intraperitoneal injection of 75 mg/kg of ketamine plus 5 mg/kg of xylazine. A single intracolonic injection of 120 mg/ml of dinitrobenzenesulfonic acid (DNBS) (Sigma Chemicals, St. Louis, Mo.) in 250 micro liter of 50% ethanol was administered through a Tom Cat catheter (Kendall Sovereign, Mansfield, Mass.) with a closed-end tip, connected to a 1 ml syringe and placed 7 cm proximal to the anus. Lubricant was applied to the tip of the catheter before injection, to protect from mucosal injury. After instillation of DNBS, 0.5 ml of air was insufflated and the catheter was removed.
Sulfasalazine (Sigma Chemicals, St Louis, Mo.), at a concentration of 120 mg/ml for intracolonic treatment and 30 mg/ml for oral treatment was used as the reference drug in all the experiments. Sulfasalazine was first dissolved in 0.1M NaOH at a concentration about 30-fold higher than the required final concentration, and then suspended in 1.5% PVA for oral dosing and 5.7% PVA for intracolonic dosing.
One group was not treated and served as no treatment group. Treatment began one day after administration of DNBS.
Macroscopic Observations: Body weight was recorded daily and the animals were examined for their physical appearance. After five days of treatment, animals were sacrificed. The colon was excised between the ileocecal junction and rectum, and opened longitudinally. After scoring of the consistency of the stool the colon was rinsed in normal saline, examined and thickness of the colonic wall and number and size of ulcers were scored. Stool consistency was graded on a scale of 0-3: 0=normal stool, well formed pellets rigid as normal; 1=loose stool, formed pellet with moisture, soft stool keeping in stool shape; 2=loose stool, stools that have abnormal form with much moisture, softer shapeless stool; 3=watery or bloody diarrhea.
Thickness of colonic wall was graded on a scale of 0-4: 0=normal, no thickness; 1=mild thickness in lower portion of the colon; 2=moderate thickness in localized area; 3=moderate thickness extending to the central portion of the colon; 4=severe thickness in the whole colon. Colonic ulceration was graded on a scale of 0-10: 0=no ulcers; 1=one small ulcer less than 2-3 mm; 2=one large ulcer more than 2-3 mm; 3=two large ulcerations more than 2-3 mm in diameter; 4=two or more sites of ulcerations extending 1 cm along the length; 5-10=when an area of ulceration extended more than 1 cm along the length of the colon, the score increases by 1 for each additional cm of involvement. The total IBD score, obtained by the sum of the scores of colonic ulcer, colon thickness and stool consistency for each animal, was calculated for each treatment group.
Statistical Analysis: The results are expressed as the mean ±SE. The statistical significance in the mean total IBD score, histopathological inflammation score, and the immunohistochemical staining of cytokines or MMP-9 was determined using Tukey-Kramer's multiple comparison tests following one-way analysis of variance (ANOVA). The data were calculated with the aid of Instat Graph Pad Software. Differences with a P value less than 0.05 were considered significant.
Methods: Colitis was induced in rats using DNBS as described in Example 25. Animals were treated intracolonically (250 μl of the test reagents) once a day for five days. […] Methods: Colitis was induced in rats using DNBS as described in Example 25. Animals were treated intracolonically (250 μl of the test reagents) once a day for five days.

DNBS-induced colitis [2] = assay: DNBS-induced colitis in rat, colon histopathology; type: in vivo, Sprague-Dawley rats
Description: Histopathology: A piece of colonic tissue at 2-4 cm proximal to the anus was excised and fixed in 10% formalin and the sections were stained with hematoxylin and eosin. The remaining length of the colonic tissues was stored at −80° C. for subsequent biochemical assays. The histology slides were examined by a veterinary pathologist who was blinded to the treatment groups. The extent of microscopic mucosal damage of the colon was scored on scale of 0-5 as described with slight modification: 0=normal histological appearance; 1=histological damage limited to surface epithelium, mild infiltration of the submucosa; 2=focal ulceration and cell disruption limited to mucosa, abnormal appearance of colonic wall, mild infiltration of inflammatory cells; 3=focal, transmural inflammation and ulceration, with mild to moderate infiltration of inflammatory cells; 4=Extensive transmural ulceration and inflammation bordered by areas of normal mucosa, moderate infiltration of inflammatory cells; 5=extensive transmural ulceration and inflammation involving entire section from epithelium to serosa, severe infiltration of inflammatory cells.
Statistical Analysis: The results are expressed as the mean ±SE. […] The data were calculated with the aid of Instat Graph Pad Software. […]

IL-1β = assay: Immunohistochemistry of colonic tissue; type: in vivo, rat; conditions: five days oral treatment
Description: (§1) Immunohistochemistry: A Universal Streptavidin/Biotin detection system (Thermo Shandon, Pittsburgh, Pa.) was used for immunohistochemical staining of formalin fixed, paraffin embedded biopsies of the colon. After dewaxing, and hydration, sections were treated with protein blocking agent to reduce non-specific binding of antibodies. The tissues were then incubated with rabbit anti-rat TNF-α, or mouse anti-rat IL-12 p70 antibodies (Biosource International, Inc, Camarillo, Calif.); rabbit anti-rat IL-1β (Serotec, Raleigh, N.C.) or rabbit anti-rat MMP-9 antibody (Chemicon International, Telecuma, Calif.) in 1% bovine serum albumin in phosphate buffered saline. Incubations with secondary antibodies, streptavidin/biotin, and chromogenic detection of peroxidase were performed according to the manufacturer's protocol. Sections were counterstained, dehydrated, mounted and examined. The intensity of the immuno-peroxidase staining was graded as described previously. Expression of cytokines was graded as: 0, no staining in the section; 1, less than 25% of the section; 2, 25-50% of the section; 3, 50-75% of the section; 4, >75% of the section with significant staining.

MMP-9 = assay: Immunohistochemistry of colonic tissue; type: in vivo, rat; conditions: vs placebo and no treatment
Description: as §1

TNF-α = assay: Immunohistochemistry of colonic tissue; type: in vivo, rat; conditions: five days oral treatment
Description: as §1

Pseudomonas aeruginosa = assay: MIC assay (microdilution); type: cell-based
Staphylococcus aureus = assay: MIC assay (microdilution); type: cell-based; conditions: lactate solutions, nanocrystalline silver: range for 12 samples
[3] = tested on: Staphylococcus epidermidis; assay: MIC assay (microdilution); type: cell-based; conditions: lactate solutions; S. epiderm (ATCC); nanocrystalline silver: range for 12 samples
Streptococcus pyogenes = assay: MIC assay (microdilution); type: cell-based; conditions: lactate solutions, nanocrystalline silver: range for 12 samples
Streptococcus pneumoniae = assay: MIC assay (microdilution); type: cell-based; conditions: lactate solutions, nanocrystalline silver: range for 12 samples
[4] = tested on: Mycobacterium tuberculosis H37Ra; type: cell-based

OO [Sample H2O2, hydrogen peroxide]
MIC (Enterobacter cloacae; SOD/catalase +): >500 µg/mL
MIC (Enterobacter cloacae; SOD/catalase −): 63 µg/mL (≈ 1850 µM)
MIC (Escherichia coli; E. coli, SOD/catalase +): >500 µg/mL
MIC (Escherichia coli; E. coli, SOD/catalase −): 31 µg/mL (≈ 911 µM)

O=C(O)c1cc(/N=N/c2ccc(S(=O)(=O)Nc3ccccn3)cc2)ccc1O [sulfasalazine, salicylazosulfapyridine]
body weight (DNBS-induced colitis [1]; DNBS colitis rats, intracolonic or oral treatment): started gaining body weight after one day of treatment
total IBD score (DNBS-induced colitis [1]; Example 27, 100 mg/kg): significantly reduced total IBD score
total IBD score (DNBS-induced colitis [1]; Example 28, 100 mg/kg): significantly reduced total IBD score
histopathological inflammation score (DNBS-induced colitis [2]; oral 100 mg/kg, vs placebo and untreated): significantly reduced the histopathological inflammation
colon sections (hematoxylin and eosin) (DNBS-induced colitis [2]; oral, 40 mg/kg nanocrystalline silver, 100 mg/kg sulfasalazine): healed mucosa and few residual inflammatory infiltrate
expression of IL-1β (immunohistochemical staining) (IL-1β): significantly reduced the expression
expression of MMP-9 (immunohistochemical staining) (MMP-9): significantly reduced the expression of MMP-9
expression of TNF-α (immunohistochemical staining) (TNF-α): significantly reduced the expression

Benzalkonium chloride [BAC]
MIC (Pseudomonas aeruginosa; P. aeruginosa isolate NP220 (BAC-sensitive)): 63 µg/mL
MIC (Pseudomonas aeruginosa; P. aeruginosa isolate NP221 (BAC-resistant)): 4000 µg/mL
MIC (Pseudomonas aeruginosa; P. aeruginosa isolate NP222 (BAC-sensitive)): 63 µg/mL

silver oxide [Ag2O]
MIC (Staphylococcus aureus; S. aureus (ATCC)): 3 µg/mL
MIC (Staphylococcus aureus; S. aureus (clin.)): 6 µg/mL
MIC [3]: 2 µg/mL
MIC (Streptococcus pyogenes; S. pyog (clin. 303)): 2 µg/mL
MIC (Streptococcus pyogenes; S. pyog (clin. 304)): 3 µg/mL
MIC (Streptococcus pneumoniae; S. pneumo (clin 314)): 3 µg/mL
MIC (Streptococcus pneumoniae; S. pneumo (clin 315)): 2 µg/mL
MIC (Pseudomonas aeruginosa; lactate solutions, P. aerug (ATCC), nanocrystalline silver: range for 12 samples): 0.8 µg/mL
MIC (Pseudomonas aeruginosa; lactate solutions, P. aerug. (clin.), nanocrystalline silver: range for 12 samples): 2 µg/mL
MIC (Escherichia coli; lactate solutions, E. coli (ATCC), nanocrystalline silver: range for 12 samples): 0.8 µg/mL
MIC [4]: 2.5 μg/ml silver
total IBD score (DNBS-induced colitis [1]; Example 27, 0.25% homogenized, intracolonic, five days): unable to show significant reduction of total IBD score
total IBD score (DNBS-induced colitis [1]; Example 27, 0.5% homogenized, intracolonic, five days): unable to show significant reduction of total IBD score
total IBD score (DNBS-induced colitis [1]; Example 27, 0.5% sonicated nanodispersion, 250 μl intracolonically once a day for five days): significantly reduced the total IBD score
total IBD score (DNBS-induced colitis [1]; Example 28, 0.05% nanodispersion, intracolonic, five days): but not 0.15% and 0.05%
total IBD score (DNBS-induced colitis [1]; Example 28, 0.15% nanodispersion, intracolonic, five days): but not 0.15% and 0.05%
total IBD score (DNBS-induced colitis [1]; Example 28, 0.5% sonicated nanodispersion, 250 μl intracolonically once a day for five days): significantly reduced the total IBD score
total IBD score (DNBS-induced colitis [1]; Example 28, 1.5% nanodispersion, intracolonic, five days): significantly reduced the total IBD score
